Results from patent US20080269338A1, “AQUEOUS SOLUTIONS CONTAINING CHLORAMINE WHICH ARE FREE FROM DI-AND TRICHLOROAMINE, AS WELL AS FROM AMMONIA” (priority 2007, published 2008).
Where two headings read alike, the source gives them in different places. One block for each compound: values may come before it.

Experiments:
[1] = Example 2: stability of a pure monochloramine solution (UV spectrum); format: physicochemical; conditions: three days storage in the refrigerator at 0-3° C.
Protocol: A solution of 1 g each of N-chlorotaurine and ammonium chloride in 100 mL water was distilled in a rotavapor (water stream vacuum, water bath temperature 50° C.). The distillate contained, according to the UV spectrum, […] pure monochloramine (NH2Cl, absorption band at λmax=244 nm, A244=0.9812, d=0.1 cm, ε244=461.6 L mol^−1 cm^−1). After three days storage in the refrigerator at 0-3° C., the band at 244 disappeared, while two bands at 203 nm (A=1.146) and 294 nm (A0 0.148) appeared which are characteristic for the chromophor —NCl2. Gottardi et al., supra.

[2] = Stability of active chlorine compound with ammonium salt in water (pH, oxidation capacity); format: physicochemical
bacteria = experiment: Killing tests, bacterial strains in general; format: cell-based; conditions: preliminary experiments, without NCT
Protocol: Microbicidal activity. […] The impact of ammonium chloride on the microbicidal activity of NCT could be confirmed in several bacterial strains (FIG. 4).
Bacterial strains, Staphylococcus aureus ATCC 25923 and 6538, Staphylococcus epidermidis ATCC 12228, Escherichia coli ATCC 11229, Proteus mirabilis ATCC 14153, Pseudomonas aeruginosa ATCC 27853, and a clinical isolate of […] deep-frozen for storage were grown overnight on tryptic soy agar (Merck, Darmstadt, Germany). Colonies from this agar were grown in tryptic soy broth (Merck, Darmstadt, Germany) at 37° C. overnight and washed twice with saline.
Killing tests. Bacteria were diluted in buffered test solution to concentrations of 1×10^6 to 5×10^7 CFU/mL. Immediately and subsequent to different incubation times at room temperature, aliquots were removed, and NCT with or without ammonium chloride or plain monochloramine was inactivated by 10-fold dilution in 0.3% sodium thiosulfate. Aliquots (50 μL) of these solutions as well as of 100-fold further dilutions in saline were spread onto tryptic soy agar plates with an automatic spiral plater (Don Whitley Scientific Limited, West Yorkshire, UK) in duplicates allowing a detection limit of 200 CFU/mL. Plates were grown at 37° C., and CFU were counted after 24 and 48 hours. Controls without NCT were treated the same way.

[3] = human eye (Nagl et al.); cited from earlier work
[4] = Example 5: penetration through the human cornea (diffusion chamber); conditions: room temperature
Protocol: A human cornea was clamped in a specially designed chamber. The upper compartment was filled with the disinfectant, while the lower one contained the buffer solution. The system was equilibrated for 2, 4, and 6 hours at room temperature, and afterwards the oxidation capacity was determined in the buffer solution of the lower compartment.

[5] = rabbit eye (Nagl et al.); cited from earlier work
[6] = with ammonium, 0.1 M phosphate buffer
[7] = with excess ammonium, no buffer

Structure (SMILES): NCl [monochloramine]
Conversion of NH2Cl to NHCl2 [1]: complete conversion of NH2Cl to NHCl2

Structure (SMILES): [Ca+2].[O-]Cl.[O-]Cl [Calcium hypochlorite]
Behaviour with ammonium compared with chloramine-T [2]: behave in the same manner

Structure (SMILES): O=c1nc([O-])n(Cl)c(=O)n1Cl.[Na+] [sodium dichloro-isocyanurate]
Behaviour with ammonium compared with chloramine-T [2]: behave in the same manner

Loss of oxidation capacity within 1 hour [2, 6]: 90% | pH within 2 hours [2, 6]: 6.3 | pH, start [2, 6]: 7.0 | pH within 8 minutes [2, 7]: 2.9 | pH, start [2, 7]: 6.8
Structure (SMILES): Cc1ccc(S(=O)(=O)NCl)cc1.[Na] [chloramine-T, N-chloro-4-toluenesulfonamide sodium]

Structure (SMILES): Cl.N [Ammonium chloride]
Influence on viability (bacteria): no influence on viability

Structure (SMILES): O=S(=O)(O)CCNCl [NCT, N-chlorotaurine]
Tolerability [3]: good tolerability | Diffused oxidation capacity, from the starting value in the upper compartment ([4]; after 2 hours): 1.3% | Diffused oxidation capacity, from the starting value in the upper compartment ([4]; after 4 hours): 4.8% | Diffused oxidation capacity, from the starting value in the upper compartment ([4]; after 6 hours): 25.4% | Tolerability [5]: good tolerability
